Data as given in ChEMBL document CHEMBL1124186, “Synthesis and evaluation of tylosin-related macrolides modified at the aldehyde function: a new series of orally effective antibiotics” (1988).
≈ marks a conversion by molar mass, not a printed value.

Experiments:
[1] = system: Streptococcus pyogenes; assay: In vivo effective dose against experimental infections in rodent caused by Streptococcus pyogenes C203 when administered sc; type: functional
[2] = system: Streptococcus pyogenes; assay: In vitro antimicrobial activity against Streptococcus pyogenes C203; type: functional
[3] = system: Streptococcus pneumoniae; assay: In vitro antimicrobial activity against Streptococcus pneumoniae; type: functional
[4] = system: Staphylococcus epidermidis; assay: In vitro antimicrobial activity against Staphylococcus epidermidis EPI1; type: functional
[5] = system: Streptococcus pyogenes; assay: In vivo effective dose against experimental infections in rodent caused by Streptococcus pyogenes C203 when administered orally; type: functional; conditions: po
[6] = system: Enterococcus faecium; assay: In vitro antimicrobial activity against Streptococcus faecium X66; type: functional, streptococcus fae-cium
[7] = system: Staphylococcus aureus; assay: In vitro antimicrobial activity against Staphylococcus aureus X1; type: functional
[8] = system: Haemophilus influenzae; assay: In vitro antimicrobial activity against Haemophilus influenzae.; type: functional

MIC [2] [µg/mL]	MIC [3] [µg/mL]	MIC [4] [µg/mL]	MIC [6] [µg/mL]	MIC [7] [µg/mL]	MIC [8] [µg/mL]	Compound	ED50 [1] [mg/kg]	ED50 [5] [mg/kg]
32 (≈ 41.4 µM)	32 (≈ 41.4 µM)	8 (≈ 10.3 µM)	128 (≈ 166 µM)	4 (≈ 5.17 µM)	128 (≈ 166 µM)	CC[C@H]1OC(=O)C[C@@H](O)[C@H](C)[C@@H](O[C@@H]2O[C@H](C)[C@@H](O)[C@H](N(C)C)[C@H]2O)[C@@H](CCN)C[C@@H](C)C(=O)/C=C/C(C)=C/[C@@H]1CO[C@@H]1O[C@H](C)[C@@H](O)[C@@H](OC)[C@H]1OC	> 10	> 100
0.12 (≈ 0.143 µM)	2 (≈ 2.39 µM)	0.25 (≈ 0.299 µM)	8 (≈ 9.56 µM)	0.25 (≈ 0.299 µM)	16 (≈ 19.1 µM)	CC[C@H]1OC(=O)C[C@@H](O)[C@H](C)[C@@H](O[C@@H]2O[C@H](C)[C@@H](O)[C@H](N(C)C)[C@H]2O)[C@@H](CCBr)C[C@@H](C)C(=O)/C=C/C(C)=C/[C@@H]1CO[C@@H]1O[C@H](C)[C@@H](O)[C@@H](OC)[C@H]1OC	4.5	19
0.12 (≈ 0.131 µM)	1 (≈ 1.09 µM)	0.25 (≈ 0.272 µM)	4 (≈ 4.35 µM)	0.25 (≈ 0.272 µM)	32 (≈ 34.8 µM)	CC[C@H]1OC(=O)C[C@@H](O)[C@H](C)[C@@H](O[C@@H]2O[C@H](C)[C@@H](O)[C@H](N(C)C)[C@H]2O)[C@@H](CCOc2cc(Cl)cc(Cl)c2)C[C@@H](C)C(=O)/C=C/C(C)=C/[C@@H]1CO[C@@H]1O[C@H](C)[C@@H](O)[C@@H](OC)[C@H]1OC	> 10	31

Continued, molecule first:

Compound	MIC [2] [µg/mL]	MIC [3] [µg/mL]	MIC [4] [µg/mL]	MIC [6] [µg/mL]	MIC [7] [µg/mL]	MIC [8] [µg/mL]	ED50 [1] [mg/kg]	ED50 [5] [mg/kg]
CC[C@H]1OC(=O)C[C@@H](O)[C@H](C)[C@@H](O[C@@H]2O[C@H](C)[C@@H](O)[C@H](N(C)C)[C@H]2O)[C@@H](CCS(=O)(=O)c2ccc(C)cc2)C[C@@H](C)C(=O)/C=C/C(C)=C/[C@@H]1CO[C@@H]1O[C@H](C)[C@@H](O)[C@@H](OC)[C@H]1OC	1 (≈ 1.1 µM)	1 (≈ 1.1 µM)	0.25 (≈ 0.274 µM)	8 (≈ 8.77 µM)	0.25 (≈ 0.274 µM)	16 (≈ 17.5 µM)	4.2	> 50
CC[C@H]1OC(=O)C[C@@H](O)[C@H](C)[C@@H](O[C@@H]2O[C@H](C)[C@@H](O)[C@H](N(C)C)[C@H]2O)[C@@H](CCOc2ncnc3ccccc23)C[C@@H](C)C(=O)/C=C/C(C)=C/[C@@H]1CO[C@@H]1O[C@H](C)[C@@H](O)[C@@H](OC)[C@H]1OC	0.5 (≈ 0.554 µM)	0.5 (≈ 0.554 µM)	0.25 (≈ 0.277 µM)	4 (≈ 4.43 µM)	0.25 (≈ 0.277 µM)	16 (≈ 17.7 µM)	5.4	> 50
CC[C@H]1OC(=O)C[C@@H](O)[C@H](C)[C@@H](O[C@@H]2O[C@H](C)[C@@H](O)[C@H](N(C)C)[C@H]2O)[C@@H](CCOc2ccc(OC(C)=O)cc2)C[C@@H](C)C(=O)/C=C/C(C)=C/[C@@H]1CO	1 (≈ 1.36 µM)	0.5 (≈ 0.681 µM)	0.5 (≈ 0.681 µM)	2 (≈ 2.73 µM)	1 (≈ 1.36 µM)	16 (≈ 21.8 µM)	> 30	> 100
CC[C@H]1OC(=O)C[C@@H](O)[C@H](C)[C@@H](O[C@@H]2O[C@H](C)[C@@H](O)[C@H](N(C)C)[C@H]2O)[C@@H](CCNCCc2ccccc2)C[C@@H](C)C(=O)/C=C/C(C)=C/[C@@H]1CO[C@@H]1O[C@H](C)[C@@H](O)[C@@H](OC)[C@H]1OC	0.25 (≈ 0.285 µM)	1 (≈ 1.14 µM)	0.5 (≈ 0.57 µM)	8 (≈ 9.12 µM)	0.5 (≈ 0.57 µM)	8 (≈ 9.12 µM)	> 1.6	55
CC[C@H]1OC(=O)C[C@@H](O)[C@H](C)[C@@H](O[C@@H]2O[C@H](C)[C@@H](O)[C@H](N(C)C)[C@H]2O)[C@@H](CC=O)C[C@@H](C)C(=O)/C=C/C(C)=C/[C@@H]1CO[C@@H]1O[C@H](C)[C@@H](O)[C@@H](O)[C@H]1OC	0.25 (≈ 0.33 µM)	0.25 (≈ 0.33 µM)	2 (≈ 2.64 µM)	4 (≈ 5.28 µM)	2 (≈ 2.64 µM)	8 (≈ 10.6 µM)	1.8	81
CC[C@H]1OC(=O)C[C@@H](O)[C@H](C)[C@@H](O[C@@H]2O[C@H](C)[C@@H](O)[C@H](N(C)C)[C@H]2O)[C@@H](CCOc2ccc(CO)cc2)C[C@@H](C)C(=O)/C=C/C(C)=C/[C@@H]1CO[C@@H]1O[C@H](C)[C@@H](O)[C@@H](OC)[C@H]1OC	0.5 (≈ 0.568 µM)	2 (≈ 2.27 µM)	0.5 (≈ 0.568 µM)	16 (≈ 18.2 µM)	0.5 (≈ 0.568 µM)	64 (≈ 72.7 µM)	5	44
CC[C@H]1OC(=O)C[C@@H](O)[C@H](C)[C@@H](O[C@@H]2O[C@H](C)[C@@H](O)[C@H](N(C)C)[C@H]2O)[C@@H](CCOc2ccccc2)C[C@@H](C)C(=O)/C=C/C(C)=C/[C@@H]1CO[C@@H]1O[C@H](C)[C@@H](O)[C@@H](O)[C@H]1OC	0.25 (≈ 0.299 µM)	1 (≈ 1.2 µM)	0.25 (≈ 0.299 µM)	4 (≈ 4.78 µM)	0.25 (≈ 0.299 µM)	32 (≈ 38.3 µM)	3.2	50
